Test results from ChEMBL document CHEMBL1144811, “Design and synthesis of morpholine derivatives. SAR for dual serotonin & noradrenaline reuptake inhibition” (Bioorg Med Chem Lett, 2008).
Activity calls are given as the source filed them. The rule behind the calls is not given here.

Tests used:
[1] = biological target: T1, Sodium-dependent dopamine transporter (Homo sapiens, UniProt Q01959)
Description: (§1) Inhibition of [3H]dopamine reuptake at human DAT expressed in HEK293 cells

[2] = biological target: Sodium-dependent serotonin transporter (Homo sapiens, UniProt P31645); assay: biochemical
Sodium-dependent serotonin transporter (Homo sapiens, UniProt P31645), sequence (P31645 whole entry): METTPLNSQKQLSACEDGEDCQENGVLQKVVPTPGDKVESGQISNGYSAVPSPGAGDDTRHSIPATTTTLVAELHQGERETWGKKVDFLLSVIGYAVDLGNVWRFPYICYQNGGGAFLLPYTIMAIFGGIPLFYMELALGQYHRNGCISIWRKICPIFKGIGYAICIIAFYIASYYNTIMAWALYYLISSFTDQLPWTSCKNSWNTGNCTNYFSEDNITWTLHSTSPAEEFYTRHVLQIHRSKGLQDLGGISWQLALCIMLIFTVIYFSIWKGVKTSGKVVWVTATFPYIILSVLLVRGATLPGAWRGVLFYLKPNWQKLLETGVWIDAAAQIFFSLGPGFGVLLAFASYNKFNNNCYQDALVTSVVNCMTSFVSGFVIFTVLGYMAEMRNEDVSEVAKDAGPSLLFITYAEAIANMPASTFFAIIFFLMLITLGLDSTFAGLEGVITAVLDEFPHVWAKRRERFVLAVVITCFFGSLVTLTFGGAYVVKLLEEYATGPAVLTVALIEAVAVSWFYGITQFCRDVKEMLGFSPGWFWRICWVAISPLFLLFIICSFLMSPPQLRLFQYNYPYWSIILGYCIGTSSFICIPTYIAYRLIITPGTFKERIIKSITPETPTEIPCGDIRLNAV
Description: Inhibition of [3H]citalopram uptake at human 5HTT expressed in HEK293 cells

[3] = biological target: Sodium-dependent noradrenaline transporter (Homo sapiens, UniProt P23975); assay: biochemical
Sodium-dependent noradrenaline transporter, sequence (P23975 whole entry): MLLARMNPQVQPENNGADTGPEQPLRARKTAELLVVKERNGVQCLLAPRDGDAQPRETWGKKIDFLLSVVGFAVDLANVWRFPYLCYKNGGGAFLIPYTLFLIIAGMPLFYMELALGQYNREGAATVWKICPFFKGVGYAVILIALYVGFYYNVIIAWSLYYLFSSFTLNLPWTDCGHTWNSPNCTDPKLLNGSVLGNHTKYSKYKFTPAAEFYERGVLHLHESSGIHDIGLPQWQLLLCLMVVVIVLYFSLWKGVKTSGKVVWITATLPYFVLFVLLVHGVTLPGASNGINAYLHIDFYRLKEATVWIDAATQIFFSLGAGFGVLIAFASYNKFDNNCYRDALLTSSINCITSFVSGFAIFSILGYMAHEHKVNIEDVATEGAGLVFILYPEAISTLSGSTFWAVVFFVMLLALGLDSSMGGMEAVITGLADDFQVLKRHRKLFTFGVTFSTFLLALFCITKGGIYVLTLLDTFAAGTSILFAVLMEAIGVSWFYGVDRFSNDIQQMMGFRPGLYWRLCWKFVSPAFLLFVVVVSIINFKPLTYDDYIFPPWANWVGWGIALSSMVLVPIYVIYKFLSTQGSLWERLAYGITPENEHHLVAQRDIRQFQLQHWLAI
Description: Inhibition of [3H]nisoxetine reuptake at human NET expressed in HEK293 cells

Histamine H1 receptor [4] = biological target: T2, Histamine H1 receptor (Homo sapiens, UniProt P35367); assay: Inhibition of histamine H1 receptor
T2 sequence (P35367 whole entry): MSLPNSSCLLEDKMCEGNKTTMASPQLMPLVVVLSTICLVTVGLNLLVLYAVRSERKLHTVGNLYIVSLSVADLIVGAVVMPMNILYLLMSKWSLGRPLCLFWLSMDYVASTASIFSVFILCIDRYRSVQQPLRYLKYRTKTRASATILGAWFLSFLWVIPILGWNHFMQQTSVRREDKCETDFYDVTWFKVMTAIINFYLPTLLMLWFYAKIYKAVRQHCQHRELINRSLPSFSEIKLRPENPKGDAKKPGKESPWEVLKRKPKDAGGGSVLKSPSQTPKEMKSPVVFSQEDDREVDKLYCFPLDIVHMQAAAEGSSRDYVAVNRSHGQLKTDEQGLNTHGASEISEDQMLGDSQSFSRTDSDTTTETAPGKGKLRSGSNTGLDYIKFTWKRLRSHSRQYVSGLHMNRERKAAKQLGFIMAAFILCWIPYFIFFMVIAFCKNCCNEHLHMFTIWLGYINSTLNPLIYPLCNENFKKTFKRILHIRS

[5] = biological target: T1, Sodium-dependent dopamine transporter; settings: hek293
Description: as §1

Histamine H1 receptor [6] = biological target: T2, Histamine H1 receptor
Histamine H1 receptor [7] = biological target: T2, Histamine H1 receptor; assay: Inhibition of histamine H1 receptor at 10 uM
Caco-2 [8] = assay: Permeability from apical to basolateral side of human Caco-2 cell membrane at 10 uM; format: ADME, cell-based; settings: caco-2, 10 µM
Caco-2 [9] = assay: Permeability from basolateral to apical side of human Caco-2 cell membrane at 10 uM; format: ADME, cell-based; settings: caco-2, 10 µM
MDCK [10] = assay: Permeability from apical to basolateral side of P-gp expressing MDCK cell membrane at 10 uM; format: ADME, cell-based, Canis lupus familiaris; settings: dog
MDCK [11] = assay: Permeability from basolateral to apical side of P-gp expressing MDCK cell membrane at 10 uM; format: ADME, cell-based, Canis lupus familiaris; settings: dog
[12] = Metabolic stability in human liver microsomes; format: ADME, Microsome
[13] = Metabolic stability in human hepatocytes; format: ADME, cell-based, Liver, Hepatocyte
Cytochrome P450 1A2 = biological target: T3, Cytochrome P450 1A2 (Homo sapiens, UniProt P05177); assay: Inhibition of CYP1A2; format: ADME
T3 sequence (P05177 whole entry): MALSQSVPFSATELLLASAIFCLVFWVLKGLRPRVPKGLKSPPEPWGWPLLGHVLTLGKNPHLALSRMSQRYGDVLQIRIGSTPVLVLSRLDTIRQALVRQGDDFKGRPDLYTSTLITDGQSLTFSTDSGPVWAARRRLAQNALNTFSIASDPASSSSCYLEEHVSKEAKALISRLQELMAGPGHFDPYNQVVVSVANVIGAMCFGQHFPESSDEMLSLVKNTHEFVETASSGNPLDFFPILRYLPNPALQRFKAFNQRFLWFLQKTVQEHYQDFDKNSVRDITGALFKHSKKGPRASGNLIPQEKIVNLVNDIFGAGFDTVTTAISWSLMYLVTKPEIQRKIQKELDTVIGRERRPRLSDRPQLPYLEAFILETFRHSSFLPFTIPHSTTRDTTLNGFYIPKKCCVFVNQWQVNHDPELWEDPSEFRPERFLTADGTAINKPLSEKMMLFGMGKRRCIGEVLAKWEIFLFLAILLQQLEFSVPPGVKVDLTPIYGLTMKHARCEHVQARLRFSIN

Cytochrome P450 2C9 = Cytochrome P450 2C9 (Homo sapiens, UniProt P11712); assay: Inhibition of CYP2C9; format: ADME
Cytochrome P450 2C19 = Cytochrome P450 2C19 (Homo sapiens, UniProt P33261); assay: Inhibition of CYP2C19; format: ADME
Cytochrome P450 2C19, sequence (P33261 whole entry): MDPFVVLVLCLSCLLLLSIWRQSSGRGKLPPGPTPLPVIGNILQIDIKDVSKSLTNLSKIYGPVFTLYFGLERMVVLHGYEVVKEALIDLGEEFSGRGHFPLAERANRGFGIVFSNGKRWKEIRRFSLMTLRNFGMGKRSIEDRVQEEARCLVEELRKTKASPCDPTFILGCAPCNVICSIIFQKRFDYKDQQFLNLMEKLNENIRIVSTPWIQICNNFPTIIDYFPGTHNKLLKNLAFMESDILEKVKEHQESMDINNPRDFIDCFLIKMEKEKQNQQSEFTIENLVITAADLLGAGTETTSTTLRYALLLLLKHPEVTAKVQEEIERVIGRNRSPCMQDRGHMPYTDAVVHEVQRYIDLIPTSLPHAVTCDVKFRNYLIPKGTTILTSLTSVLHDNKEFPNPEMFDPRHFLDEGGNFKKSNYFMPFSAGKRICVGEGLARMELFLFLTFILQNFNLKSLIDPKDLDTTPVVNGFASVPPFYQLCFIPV

Cytochrome P450 2D6 = Cytochrome P450 2D6 (Homo sapiens, UniProt P10635); assay: Inhibition of CYP2D6; format: ADME
Cytochrome P450 3A4 = Cytochrome P450 3A4 (Homo sapiens, UniProt P08684); assay: Inhibition of CYP3A4; format: ADME
[14] = biological target: Voltage-gated inwardly rectifying potassium channel KCNH2 (Homo sapiens, UniProt Q12809); assay: Displacement of [3H]dofetilide from human ERG
Voltage-gated inwardly rectifying potassium channel KCNH2, sequence (Q12809 whole entry): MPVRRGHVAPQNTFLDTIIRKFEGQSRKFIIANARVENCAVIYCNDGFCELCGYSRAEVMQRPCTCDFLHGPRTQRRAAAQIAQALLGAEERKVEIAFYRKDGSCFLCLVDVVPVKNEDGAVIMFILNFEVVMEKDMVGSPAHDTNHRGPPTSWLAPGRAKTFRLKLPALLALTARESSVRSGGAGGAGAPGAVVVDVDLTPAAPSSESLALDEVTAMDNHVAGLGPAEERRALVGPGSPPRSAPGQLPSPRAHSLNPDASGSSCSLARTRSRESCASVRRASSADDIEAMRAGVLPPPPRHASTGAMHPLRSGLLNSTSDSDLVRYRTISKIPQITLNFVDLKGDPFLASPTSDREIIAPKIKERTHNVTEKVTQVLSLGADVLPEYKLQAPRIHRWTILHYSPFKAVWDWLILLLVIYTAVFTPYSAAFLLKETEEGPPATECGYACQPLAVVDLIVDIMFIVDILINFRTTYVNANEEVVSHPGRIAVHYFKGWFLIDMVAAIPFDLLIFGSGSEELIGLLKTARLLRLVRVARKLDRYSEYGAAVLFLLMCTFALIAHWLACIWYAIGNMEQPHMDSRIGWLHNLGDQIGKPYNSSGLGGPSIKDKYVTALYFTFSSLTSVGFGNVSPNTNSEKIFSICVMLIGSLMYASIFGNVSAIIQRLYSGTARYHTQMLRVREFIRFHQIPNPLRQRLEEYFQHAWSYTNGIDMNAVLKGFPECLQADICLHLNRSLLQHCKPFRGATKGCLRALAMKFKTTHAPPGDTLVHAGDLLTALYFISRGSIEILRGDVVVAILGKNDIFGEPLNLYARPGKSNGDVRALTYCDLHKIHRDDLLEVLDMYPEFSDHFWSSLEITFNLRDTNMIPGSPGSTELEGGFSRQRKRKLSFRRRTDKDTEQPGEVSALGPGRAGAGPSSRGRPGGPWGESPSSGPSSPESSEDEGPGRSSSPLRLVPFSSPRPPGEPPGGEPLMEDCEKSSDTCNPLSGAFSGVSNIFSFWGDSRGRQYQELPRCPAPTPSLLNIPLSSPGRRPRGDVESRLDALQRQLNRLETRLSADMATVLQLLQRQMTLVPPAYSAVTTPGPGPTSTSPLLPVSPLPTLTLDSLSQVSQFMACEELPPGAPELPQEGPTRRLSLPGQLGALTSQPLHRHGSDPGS

[15] = Inhibition of sodium channel site 2
[16] = Inhibition of calcium channel L type at diltiazem site
Rattus norvegicus [17] = assay: Increase in noradrenaline level in prefrontal cortex interstitial fluid of rat at 10 mg/kg, sc; format: functional; settings: route subcutaneous
Rattus norvegicus [18] = assay: Increase in 5-hydroxytryptamine level in prefrontal cortex interstitial fluid of rat at 10 mg/kg, sc; format: functional; settings: route subcutaneous
[19] = biological target: Sodium-dependent serotonin transporter (Rattus norvegicus, UniProt P31652); assay: Inhibition of rat 5HTT expressed in HEK293 cells; format: cell-based
[20] = biological target: Norepinephrine transporter (Rattus norvegicus, UniProt Q9WTR4); assay: Inhibition of rat NET expressed in HEK293 cells; format: cell-based
Norepinephrine transporter, sequence (Q9WTR4 whole entry): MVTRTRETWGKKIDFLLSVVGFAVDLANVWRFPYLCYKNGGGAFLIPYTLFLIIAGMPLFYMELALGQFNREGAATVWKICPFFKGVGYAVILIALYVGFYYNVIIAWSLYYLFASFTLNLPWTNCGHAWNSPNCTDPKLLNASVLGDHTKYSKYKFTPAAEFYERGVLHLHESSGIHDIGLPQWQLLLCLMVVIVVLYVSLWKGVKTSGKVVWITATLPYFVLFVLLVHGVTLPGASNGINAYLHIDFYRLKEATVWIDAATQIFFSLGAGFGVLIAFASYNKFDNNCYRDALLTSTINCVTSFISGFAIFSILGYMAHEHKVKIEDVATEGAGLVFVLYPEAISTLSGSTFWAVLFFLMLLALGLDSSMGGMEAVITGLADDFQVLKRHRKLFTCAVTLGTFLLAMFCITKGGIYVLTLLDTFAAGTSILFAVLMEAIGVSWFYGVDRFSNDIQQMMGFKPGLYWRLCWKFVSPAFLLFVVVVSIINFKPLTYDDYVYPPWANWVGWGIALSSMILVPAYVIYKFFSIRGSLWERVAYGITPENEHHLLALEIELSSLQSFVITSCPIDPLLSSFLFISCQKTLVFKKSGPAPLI

[21] = Partition coefficient, log D at pH 7.4; format: physicochemical; settings: octanol/water
[22] = pKa, dissociation constant of the compound; format: physicochemical

T1 sequence (Q01959 whole entry): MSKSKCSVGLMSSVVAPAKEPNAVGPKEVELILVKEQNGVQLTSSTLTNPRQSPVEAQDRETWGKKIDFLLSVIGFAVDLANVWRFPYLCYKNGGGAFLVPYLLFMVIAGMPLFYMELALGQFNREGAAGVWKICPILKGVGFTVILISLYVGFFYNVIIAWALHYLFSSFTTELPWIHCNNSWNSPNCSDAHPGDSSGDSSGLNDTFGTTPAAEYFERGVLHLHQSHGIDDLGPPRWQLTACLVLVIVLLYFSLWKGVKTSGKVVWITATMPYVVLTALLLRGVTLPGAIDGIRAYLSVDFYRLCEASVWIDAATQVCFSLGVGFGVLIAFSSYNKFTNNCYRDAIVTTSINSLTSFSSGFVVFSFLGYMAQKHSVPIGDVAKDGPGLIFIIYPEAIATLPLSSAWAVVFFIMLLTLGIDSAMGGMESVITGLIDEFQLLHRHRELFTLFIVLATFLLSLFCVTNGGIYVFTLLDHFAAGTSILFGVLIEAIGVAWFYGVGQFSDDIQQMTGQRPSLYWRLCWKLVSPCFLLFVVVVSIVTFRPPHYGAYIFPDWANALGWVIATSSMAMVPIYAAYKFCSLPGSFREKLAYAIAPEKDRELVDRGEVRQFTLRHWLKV

| SMILES | Ki [1] | Ki [2] | Ki [3] | further results |
| --- | --- | --- | --- | --- |
| c1ccc([C@H](Oc2cccc3c2OCC3)[C@@H]2CNCCO2)cc1 | – | 1800 nM | 12 nM | Activity (Histamine H1 receptor [4]): inactive |
| COc1cc(F)ccc1O[C@@H](c1ccccc1)[C@@H]1CNCCO1 | 3080 nM | 740 nM | 6 nM | Activity (Histamine H1 receptor [4]): inactive |
| COc1cc(Cl)ccc1O[C@@H](c1ccccc1F)[C@@H]1CNCCO1 | – | 70 nM | 22 nM | – |
| CCOc1c(Cl)cccc1OC(c1ccccc1)C1CNCCO1 (racemic; syn) | – | 240 nM | 275 nM | Ki [5]: > 10000 nM |
| COc1cc(Cl)ccc1OC(c1ccccc1)C1CNCCO1 (racemic; anti) | 2200 nM | – | – | – |
| Clc1cccc(O[C@@H](c2ccccc2)[C@@H]2CNCCO2)c1Cl | 420 nM | 100 nM | 17 nM | – |
| COc1cc(Cl)ccc1O[C@@H](c1cccc(C)c1)[C@@H]1CNCCO1 | – | 69 nM | 16 nM | – |
| COc1cc(Cl)ccc1O[C@@H](c1ccccc1)[C@@H]1CNCCO1 | 1570 nM | – | – | inhibition (Histamine H1 receptor [7]): < 20%; Papp (Caco-2 [8]): 18 10^-6/cm; Papp (Caco-2 [9]): 16 10^-6/cm; Papp (MDCK [10]): 22 10^-6/cm; Papp (MDCK [11]): 35 10^-6/cm; half-life [12]: > 2 h; half-life [13]: 3.1 h; IC50 (Cytochrome P450 1A2): > 29000 nM; IC50 (Cytochrome P450 2C9): > 29000 nM; IC50 (Cytochrome P450 2C19): > 29000 nM; IC50 (Cytochrome P450 2D6): > 29000 nM; IC50 (Cytochrome P450 3A4): > 29000 nM; Ki [14]: 3300 nM; Ki [15]: 1200 nM; Ki [16]: 2000 nM; Activity (Rattus norvegicus [17]): 170%; Activity (Rattus norvegicus [18]): 160%; Ki [19]: 59 nM; Ki [20]: 6 nM |
| COc1cc(Cl)ccc1O[C@@H](c1cccc(F)c1)[C@@H]1CNCCO1 | 10800 nM | 58 nM | 9 nM | – |
| COc1cc(Cl)ccc1O[C@@H](c1ccccc1C)[C@@H]1CNCCO1 | – | 70 nM | 84 nM | – |
| CCOc1cc(Cl)ccc1OC(c1ccccc1)C1CNCCO1 (racemic; syn) | 1540 nM | 60 nM | 15 nM | – |
| CCOc1cc(Cl)ccc1OC(c1ccccc1)C1CNCCO1 (racemic; anti) | 1670 nM | 220 nM | 390 nM | – |
| COc1cc(F)ccc1O[C@H](c1ccccc1)[C@H]1CNCCO1 | – | 22 nM | 610 nM | Ki (Histamine H1 receptor [6]): 10 nM |
| c1ccc([C@@H](Oc2cccc3c2OCC3)[C@H]2CNCCO2)cc1 | 5750 nM | 20 nM | 350 nM | Ki (Histamine H1 receptor [6]): 10 nM |
| COc1cc(Cl)ccc1O[C@H](c1ccccc1)[C@H]1CNCCO1 | 1790 nM | – | – | Ki (Histamine H1 receptor [6]): 26 nM |
| Cc1cc(F)ccc1O[C@@H](c1ccccc1)[C@@H]1CNCCO1 | 1250 nM | 185 nM | 18 nM | Activity (Histamine H1 receptor [4]): inactive |
| CCOc1c(Cl)cccc1OC(c1ccccc1)C1CNCCO1 (racemic; anti) | > 10000 nM | 340 nM | 1490 nM | – |
| COc1cc(Br)ccc1O[C@@H](c1ccccc1)[C@@H]1CNCCO1 | – | 30 nM | – | – |
| COc1cc(Cl)ccc1O[C@@H](c1ccc(C)cc1)[C@@H]1CNCCO1 | 1650 nM | 88 nM | 180 nM | – |

The next lines start with results.

| Ki [1] | Ki [2] | Ki [3] | SMILES | further results |
| --- | --- | --- | --- | --- |
| 2600 nM | 3390 nM | 10 nM | Fc1cccc(O[C@@H](c2ccccc2)[C@@H]2CNCCO2)c1F | Activity (Histamine H1 receptor [4]): inactive |
| 950 nM | 34 nM | 860 nM | Cc1cc(F)ccc1O[C@H](c1ccccc1)[C@H]1CNCCO1 | Ki (Histamine H1 receptor [6]): 10 nM |
| 760 nM | – | – | Fc1ccc(O[C@H](c2ccccc2)[C@H]2CNCCO2)c(Cl)c1 | Ki (Histamine H1 receptor [6]): 10 nM |
| – | 62 nM | 29 nM | COc1cc(Cl)ccc1O[C@@H](c1ccc(F)cc1)[C@@H]1CNCCO1 | – |
| 380 nM | 12 nM | 130 nM | Fc1cccc(O[C@H](c2ccccc2)[C@H]2CNCCO2)c1F | Ki (Histamine H1 receptor [6]): 10 nM |
| 5050 nM | – | – | COc1cc(Cl)ccc1OC(c1ccccc1)C1CNCCO1 (racemic; syn) | logD [21]: 1.9; pKa [22]: 7.7 |
| 1090 nM | 96 nM | 28 nM | COc1ccc(O[C@@H](c2ccccc2)[C@@H]2CNCCO2)c(Cl)c1 | – |
| – | 41 nM | 160 nM | COc1cc(C(F)(F)F)ccc1O[C@@H](c1ccccc1)[C@@H]1CNCCO1 | – |
| 1170 nM | – | – | Fc1ccc(O[C@@H](c2ccccc2)[C@@H]2CNCCO2)c(Cl)c1 | Activity (Histamine H1 receptor [4]): inactive |
| – | 110 nM | 210 nM | COc1cc(C#N)ccc1O[C@@H](c1ccccc1)[C@@H]1CNCCO1 | – |
